The text below walks through data of ChEMBL document CHEMBL5614467, “Structure-Activity Relationship of Truncated 4'-Selenonucleosides: A3 Adenosine Receptor Activity and Binding Selectivity” (ACS Med Chem Lett, 2024).

Test [1] deals with T1, Adenosine receptor A3 (Homo sapiens, UniProt P0DMS8).
T1 sequence (P0DMS8 whole entry): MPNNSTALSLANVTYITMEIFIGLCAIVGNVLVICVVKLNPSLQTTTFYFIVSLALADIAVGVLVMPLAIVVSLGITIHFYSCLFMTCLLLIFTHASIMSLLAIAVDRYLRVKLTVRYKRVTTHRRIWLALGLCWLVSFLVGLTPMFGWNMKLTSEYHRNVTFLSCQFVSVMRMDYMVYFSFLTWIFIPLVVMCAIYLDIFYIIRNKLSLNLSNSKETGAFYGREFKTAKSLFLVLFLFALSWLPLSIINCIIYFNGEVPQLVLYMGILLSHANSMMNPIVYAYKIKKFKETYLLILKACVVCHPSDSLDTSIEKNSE
The experiment in a line: Displacement of [3H]NECA from human adenosine A3 receptor extracted from human HeLa cell membrane assessed as inhibition constant incubated for 180 mins by microplate scintillation counter. Type of test: cell membranes. In general terms: Displacement assays read how much labelled ligand stays bound in the presence of the test substance.

The target in test [2] is T2, Adenosine receptor A2b (Homo sapiens) (UniProt P29275).
T2 sequence (whole entry): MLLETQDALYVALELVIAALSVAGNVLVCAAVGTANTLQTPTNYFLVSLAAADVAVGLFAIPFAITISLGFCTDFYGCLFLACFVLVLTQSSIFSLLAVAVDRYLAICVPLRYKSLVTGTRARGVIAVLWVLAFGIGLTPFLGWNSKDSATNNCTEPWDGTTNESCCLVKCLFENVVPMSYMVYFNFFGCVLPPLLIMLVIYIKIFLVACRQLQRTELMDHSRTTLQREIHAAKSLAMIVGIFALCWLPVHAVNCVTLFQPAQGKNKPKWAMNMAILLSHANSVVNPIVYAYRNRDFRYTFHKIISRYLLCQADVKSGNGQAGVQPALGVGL
Kind of test: Displacement of [3H]DPCPX from human adenosine A2B receptor extracted from HEK293 cell membrane assessed as inhibition of [3H]DPCPX binding at 10 uM incubated for 30 mins by microplate beta scintillation counter relative to control. Format: cell membranes.

The target in test [3] is Adenosine receptor A2a (Homo sapiens) (UniProt P29274). The experiment in a line: Displacement of [3H]ZM241385 from human adenosine A2A receptor extracted from human HeLa cell membrane assessed as inhibition of [3H]ZM241385 binding at 10 uM incubated for 30 mins by microplate beta scintillation counter relative to control. Format: cell membranes.
Chain of Adenosine receptor A2a (Homo sapiens) (P29274 whole entry): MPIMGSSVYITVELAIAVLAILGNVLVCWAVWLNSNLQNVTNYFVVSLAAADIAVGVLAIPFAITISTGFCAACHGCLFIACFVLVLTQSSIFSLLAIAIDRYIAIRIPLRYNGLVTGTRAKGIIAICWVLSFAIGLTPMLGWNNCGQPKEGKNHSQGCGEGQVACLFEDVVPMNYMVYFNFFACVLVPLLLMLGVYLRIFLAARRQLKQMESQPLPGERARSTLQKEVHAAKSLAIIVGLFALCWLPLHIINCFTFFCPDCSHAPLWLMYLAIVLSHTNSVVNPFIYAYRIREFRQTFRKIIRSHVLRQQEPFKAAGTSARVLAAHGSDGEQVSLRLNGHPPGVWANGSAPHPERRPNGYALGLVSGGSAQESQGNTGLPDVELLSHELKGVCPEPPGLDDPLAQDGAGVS
The target of test [4] is T3, Adenosine receptor A1 (Homo sapiens) (UniProt P30542).
T3 sequence (whole entry): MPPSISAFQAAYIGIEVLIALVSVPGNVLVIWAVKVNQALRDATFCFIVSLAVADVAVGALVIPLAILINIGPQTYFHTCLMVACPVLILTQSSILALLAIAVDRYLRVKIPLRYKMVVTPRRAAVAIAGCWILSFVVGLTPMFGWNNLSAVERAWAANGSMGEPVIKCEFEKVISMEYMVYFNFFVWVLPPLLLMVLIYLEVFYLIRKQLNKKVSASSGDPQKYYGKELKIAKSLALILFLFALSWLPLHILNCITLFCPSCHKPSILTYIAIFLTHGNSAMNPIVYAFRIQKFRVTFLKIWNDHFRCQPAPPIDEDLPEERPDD
The experiment in a line: Displacement of [3H]DPCPX from human adenosine A1 receptor extracted from CHO cell membrane assessed as inhibition of [3H]DPCPX binding at 10 uM incubated for 60 mins by microplate beta scintillation counter relative to control. Type of test: cell membranes.

Test [5] deals with T4, Adenosine receptor A3 (Homo sapiens) (UniProt P0DMS8).
T4 sequence (whole entry): T1 sequence (P0DMS8 whole entry)
Kind of test: Antagonist activity at human adenosine A3 receptor expressed in CHO cells assessed as inhibition of cAMP production preincubated for 15 mins followed by NECA addition for 10 mins and measured 5 mins after forskolin addition by enzyme immunoassay relative to control. Format: functional, cell-based. The conditions noted are these: time 30.0 min. For orientation: Cyclic AMP is a second messenger, typically raised through Gs and lowered through Gi signalling.

Test [6] addresses T4, Adenosine receptor A3 (Homo sapiens). Kind of test: Partial agonist activity at human adenosine A3 receptor expressed in CHO cells assessed as cAMP production preincubated for 15 mins followed by forskolin addition and measured after 5 mins by enzyme immunoassay relative to control. Type of test: functional, cell-based. The conditions noted are these: filed as partial agonist, time 20.0 min.

In test [7] the target is T1, Adenosine receptor A3. Kind of test: Binding affinity to human adenosine A3 receptor assessed as inhibition constant.
Test [8] has as its target T1, Adenosine receptor A3. Kind of test: Displacement of [125I]iodo-AB-MECA from human adenosine A3 receptor expressed in CHO cells assessed as inhibition constant. Type of test: cell-based.

Broadly, the Ki is a measure of affinity in units of concentration, obtained from inhibition or displacement. The term inhibition denotes the drop in the measured response relative to a control, in per cent. Turning to `O[C@@H]1[C@H](O)C[Se][C@H]1n1cnc2c(NCc3cccc(Br)c3)nc(Cl)nc21`, the Ki on Adenosine receptor A3 [1] came out at 38.4 nM. Also, the results for the inhibition in test [2], in test [3] and in test [4] were 43%, 35% and 62%, respectively.
Taken in the same sequence, the figures for `CCNc1nc(Cl)nc2c1ncn2[C@@H]1[Se]C[C@@H](O)[C@H]1O` were 5.2 nM, 18%, 3% and 31%.
For the compound `O[C@@H]1[C@H](O)C[Se][C@H]1n1cnc2c(NCc3cccc(Cl)c3)nc(Cl)nc21`, the Ki at Adenosine receptor A3 [1] amounted to 33.2 nM. Further, the inhibition worked out at 41% in test [2], 29% in test [3] and 66% in test [4].
As for `CCNc1ncnc2c1ncn2[C@@H]1[Se]C[C@@H](O)[C@H]1O`, the Ki at Adenosine receptor A3 [1] is 17.5 nM. The inhibition in test [2] was 7%; in test [3], 2%; in test [4], 25%.
Consider `O[C@@H]1[C@H](O)C[Se][C@H]1n1cnc2c(NCc3cccc(F)c3)nc(Cl)nc21`, for which the Ki on Adenosine receptor A3 [1] is 97.1 nM. For the same compound, the inhibition stood at 22% in test [2], 7% in test [3] and 23% in test [4].
For `Nc1nc(Cl)nc2c1ncn2[C@@H]1[Se]C[C@@H](O)[C@H]1O`, in that order: 358 nM, 35%, 12% and 22%.
For `Nc1ncnc2c1ncn2[C@@H]1[Se]C[C@@H](O)[C@H]1O`, in that order: 238 nM, 25%, 33% and 10%.
For `O[C@@H]1[C@H](O)C[Se][C@H]1n1cnc2c(NC3CCCC3)nc(Cl)nc21`, in that order: 16.9 nM, 37%, 13% and 54%.
For the compound `CNc1nc(Cl)nc2c1ncn2[C@@H]1[Se]C[C@@H](O)[C@H]1O`, on Adenosine receptor A3 [1], the Ki turned out to be 25.2 nM. The inhibition is 28% in test [2], 3% in test [3] and 14% in test [4].
Taken in the same sequence, the figures for `O[C@@H]1[C@H](O)C[Se][C@H]1n1cnc2c(NCc3cccc(Br)c3)ncnc21` were 20.9 nM, 37%, 28% and 39%.
For `O[C@@H]1[C@H](O)C[Se][C@H]1n1cnc2c(NCc3cccc(I)c3)ncnc21`, in that order: 43.2 nM, 20%, 19% and 25%.
As to `O[C@@H]1[C@H](O)C[Se][C@H]1n1cnc2c(NC3CC3)nc(Cl)nc21`, the Ki on Adenosine receptor A3 [1] amounted to 5.7 nM. Besides, the inhibition worked out at 29% in test [2], 6% in test [3], 26% in test [4] and 11% in test [5]. In addition, in test [6], the Activity came to 87%.
As for `O[C@@H]1[C@H](O)C[Se][C@H]1n1cnc2c(NC3CCCC3)ncnc21`, the Ki on Adenosine receptor A3 [1] turned out to be 36.6 nM. Also, the inhibition worked out at 7% in test [2], 16% in test [3] and 39% in test [4].
For `CNc1ncnc2c1ncn2[C@@H]1[Se]C[C@@H](O)[C@H]1O`, in that order: 31.1 nM, 1%, 2% and 7%.
Turning to `O[C@@H]1[C@H](O)C[Se][C@H]1n1cnc2c(NCc3cccc(Cl)c3)ncnc21`, at Adenosine receptor A3 [1], the Ki turned out to be 32.5 nM. For the same compound, the inhibition stood at 30% in test [2], 25% in test [3] and 32% in test [4].
For `O[C@@H]1[C@H](O)C[Se][C@H]1n1cnc2c(NCc3cccc(F)c3)ncnc21`, in that order: 121 nM, 8%, 2% and 12%.
For `O[C@@H]1[C@H](O)C[Se][C@H]1n1cnc2c(NCc3cccc(I)c3)nc(Cl)nc21`, in that order: 109 nM, 67%, 24% and 57%.
Taken in the same sequence, the figures for `O[C@@H]1[C@H](O)C[Se][C@H]1n1cnc2c(NC3CC3)ncnc21` were 13.6 nM, 15%, 9% and 20%.
For `CNC(=O)C1O[C@@H](n2cnc3c(Nc4cccc(I)c4)nc(Cl)nc32)[C@H](O)[C@@H]1O` (stereo partly specified), the Ki at Adenosine receptor A3 [7] is 1.4 nM.
Take `CNC(=O)C1S[C@@H](n2cnc3c(Nc4cccc(I)c4)nc(Cl)nc32)[C@H](O)[C@@H]1O` (stereo partly specified): the Ki on Adenosine receptor A3 [8] came to 0.38 nM.
